# Active and inactive are the calls of the source. The calls are words filed in the database; no cut-off is given here.
# Legend:
# Enterococcus faecalis [1] = test: Antimicrobial activity against Enterococcus faecalis OG1RF assessed as reduction in visible bacterial growth incubated for 16 to 20 hrs by microdilution broth assay; format: functional; conditions: time 16-20 hrs
# Enterococcus faecalis [2] = test: Bactericidal activity against Enterococcus faecalis OG1RF assessed as reduction in bacterial colonies incubated for 16 to 20 hrs by microdilution broth analysis; format: functional; conditions: time 16-20 hrs, read-out: MBC99.9
# [3] = Inhibition of Enterococcus faecalis OG1RF YycG autophosphorylation by Kinase-Glo luminescent kinase assay
# [4] = Cytotoxicity against african green monkey Vero cells assessed as inhibition of cell growth by MTT assay; format: cell-based; conditions: chlorocebus sabaeus
# [5] = Hemolytic activity against human erythrocytes at 50 uM incubated for 1 hr at 570 nm by spectrophotometry; format: ADME, tissue-based, Erythrocyte; conditions: read-out: Activity
# [6] = Hemolytic activity against human erythrocytes at 200 uM incubated for 1 hr at 570 nm by spectrophotometry; format: ADME, tissue-based, Erythrocyte; conditions: read-out: Activity
# Enterococcus faecalis [7] = test: Inhibition of biofilm formation of Enterococcus faecalis FB-1 assessed as inhibitory rate of formation at 100 uM for 24 hrs measured at 570 nm by crystal violet staining based spectrophotometry; format: functional
# Enterococcus faecalis [8] = test: Bacteriostatic activity against planktonic cells of Enterococcus faecalis OG1RF measured by microdilution broth assay; format: functional, organism-based
# Enterococcus faecalis [9] = test: Antibiofilm activity against Enterococcus faecalis FB-1 assessed as inhibition of biofilm maturation measured after 24 hr; format: functional, organism-based
# Enterococcus faecalis [10] = test: Antibiofilm activity against Enterococcus faecalis assessed as reduction in amount of viable biofilm-embedded bacterial cells at 50 uM measured by YTO 9/PI staining followed by confocal laser scanning microscopy; format: functional
# Enterococcus faecalis [11] = test: Antibiofilm activity against Enterococcus faecalis FB-1 assessed as eradication of mature biofilm by semiquantitative microtiter assay; format: functional, organism-based
# Enterococcus faecalis [12] = test: Antibacterial activity against Enterococcus faecalis ATCC 29212 assessed as reduction in visible bacterial growth incubated for 16 to 20 hrs by microdilution broth assay; format: functional; conditions: time 16-20 hrs
# Enterococcus faecalis [13] = test: Antibacterial activity against Enterococcus faecalis OG1RF assessed as reduction in visible bacterial growth incubated for 16 to 20 hrs by microdilution broth assay; format: functional; conditions: time 16-20 hrs
# Enterococcus faecalis [14] = test: Antibacterial activity against Enterococcus faecalis FB-1 assessed as reduction in visible bacterial growth incubated for 16 to 20 hrs by microdilution broth assay; format: functional; conditions: time 16-20 hrs
# [15] = tested on: Staphylococcus epidermidis; test: Antibacterial activity against Staphylococcus epidermidis ATCC 35984 assessed as reduction in visible bacterial growth incubated for 16 to 20 hrs by microdilution broth assay; format: functional; conditions: time 16-20 hrs
# [16] = tested on: Staphylococcus epidermidis; test: Antibacterial activity against Staphylococcus epidermidis ATCC 12228 assessed as reduction in visible bacterial growth incubated for 16 to 20 hrs by microdilution broth assay; format: functional; conditions: time 16-20 hrs
# Staphylococcus aureus [17] = test: Antibacterial activity against Staphylococcus aureus ATCC 29213 assessed as reduction in visible bacterial growth incubated for 16 to 20 hrs by microdilution broth assay; format: functional; conditions: time 16-20 hrs
# Staphylococcus aureus [18] = test: Antibacterial activity against Staphylococcus aureus ATCC 35556 assessed as reduction in visible bacterial growth incubated for 16 to 20 hrs by microdilution broth assay; format: functional; conditions: time 16-20 hrs
# Enterococcus faecium = test: Antibacterial activity against Enterococcus faecium EF16M64 assessed as reduction in visible bacterial growth incubated for 16 to 20 hrs by microdilution broth assay; format: functional; conditions: time 16-20 hrs
# Streptococcus agalactiae = test: Antibacterial activity against Streptococcus agalactiae NSGC64 assessed as reduction in visible bacterial growth incubated for 16 to 20 hrs by microdilution broth assay; format: functional; conditions: time 16-20 hrs
# Escherichia coli = test: Antibacterial activity against Escherichia coli […] assessed as reduction in visible bacterial growth incubated for 16 to 20 hrs by microdilution broth assay; format: functional; conditions: time 16-20 hrs
# Enterococcus faecalis [19] = test: Binding affinity to Enterococcus faecalis FB-1 YycG assessed as slow association and rapid dissociation measured by Octet RED96 response assay
# Enterococcus faecalis [20] = test: Bactericidal activity against Enterococcus faecalis OG1RF assessed as reductions in colony forming unit in presence of ampicillin within 3 hrs by time-killing assay; format: functional, organism-based
# Enterococcus faecalis [21] = test: Bactericidal activity against Enterococcus faecalis OG1RF assessed as reductions in colony forming unit in presence of ampicillin after 24 hrs by time-killing assay; format: functional, organism-based
# Enterococcus faecalis [22] = test: Antibiofilm activity against Enterococcus faecalis FB-1 assessed as inhibition of biofilm infection at 25 uM by fluid shear system; format: functional, organism-based
# Enterococcus faecalis [23] = test: Antibacterial activity against clinical strain Enterococcus faecalis assessed as inhibition of bacterial growth; format: functional
# Enterococcus faecalis [24] = test: Antibacterial activity against clinical strain vancomycin-resistant Enterococcus faecalis assessed as inhibition of bacterial growth; format: functional
# Enterococcus faecalis [25] = test: Antibacterial activity against clinical strain linozelid-resistant Enterococcus faecalis assessed as inhibition of bacterial growth; format: functional
# Enterococcus faecalis [26] = test: Antibiofilm activity against Enterococcus faecalis assessed as inhibition of biofilm at 1/2 times of MIC incubated for 24 hrs; format: functional; parameters: scale not given: the % may be the effect or the level left
# Enterococcus faecalis [27] = test: Antibiofilm activity against Enterococcus faecalis assessed as fold reduction in yycG gene expression at 25 uM incubated for 6 hrs by qRT-PCR analysis; format: functional
# Enterococcus faecalis [28] = test: Antibiofilm activity against Enterococcus faecalis assessed as fold reduction in yycF gene expression at 25 uM incubated for 6 hrs by qRT-PCR analysis; format: functional
# Enterococcus faecalis [29] = test: Antibiofilm activity against Enterococcus faecalis assessed as fold reduction in […] gene expression at 25 uM incubated for 6 hrs by qRT-PCR analysis; format: functional
# Enterococcus faecalis [30] = test: Antibiofilm activity against Enterococcus faecalis assessed as fold reduction in epbOX gene expression at 25 uM incubated for 6 hrs by qRT-PCR analysis; format: functional
# Enterococcus faecalis [31] = test: Antibiofilm activity against Enterococcus faecalis assessed as fold reduction in fsrB gene expression at 25 uM incubated for 6 hrs by qRT-PCR analysis; format: functional
# Enterococcus faecalis [32] = test: Antibiofilm activity against Enterococcus faecalis assessed as fold reduction in gelE gene expression at 25 uM incubated for 6 hrs by qRT-PCR analysis; format: functional
# Enterococcus faecalis [33] = test: Antibiofilm activity against Enterococcus faecalis assessed as fold reduction in sprE gene expression at 25 uM incubated for 6 hrs by qRT-PCR analysis; format: functional
# Enterococcus faecalis [34] = test: Effect on initial adhesion capacity of Enterococcus faecalis assessed as attached cells at 25 uM for 6 hrs by crystal violet staining based microscopic assay (reference value: 0.412); format: functional
# Enterococcus faecalis [35] = test: Antibacterial activity against ATc induced Enterococcus faecalis OG1RF-asryycG silencing strain assessed as fold reduction in MIC relative to wild type; format: functional
# Enterococcus faecalis [36] = test: Bactericidal activity against Enterococcus faecalis OG1RF assessed as reductions in colony forming unit in presence of vancomycin within 3 hrs by time-killing assay; format: functional, organism-based
# Enterococcus faecalis [37] = test: Bactericidal activity against Enterococcus faecalis OG1RF assessed as reductions in colony forming unit in presence of linezolid within 3 hrs by time-killing assay; format: functional, organism-based
# Enterococcus faecalis [38] = test: Bactericidal activity against Enterococcus faecalis OG1RF assessed as reductions in colony forming unit in presence of vancomycin after 24 hrs by time-killing assay; format: functional, organism-based
# Enterococcus faecalis [39] = test: Bactericidal activity against Enterococcus faecalis OG1RF assessed as reductions in colony forming unit in presence of linezolid after 24 hrs by time-killing assay; format: functional, organism-based
compound,measurement,setting,value
O=C(C1=C(O)C(=O)N(c2nnc(SCc3ccccc3)s2)C1c1ccccc1)c1cc2ccccc2o1 (stereo not drawn),MIC,Enterococcus faecalis [1],> 200 µM
same,MBC,Enterococcus faecalis [2],> 200 µM
same,IC50,[3],22 µM
same,CC50,[4],> 200 µM
same,"hemolysis at 1 h, 50 µM",[5],4.16%
same,"hemolysis at 1 h, 200 µM",[6],7.01%
same,inhibition at 100 µM,Enterococcus faecalis [7],72.2%
same,Activity,Enterococcus faecalis [8],inactive
same,Activity,Enterococcus faecalis [9],Dose-Dependent Effect
same,Activity,Enterococcus faecalis [10],26.66%
O=C(C1=C(O)C(=O)N(c2nnc(SCc3ccccc3)s2)C1c1ccccc1F)c1cc2ccccc2o1 (stereo not drawn),MIC,Enterococcus faecalis [1],> 200 µM
same,MBC,Enterococcus faecalis [2],> 200 µM
same,IC50,[3],> 200 µM
same,CC50,[4],> 200 µM
same,"hemolysis at 1 h, 50 µM",[5],4.44%
same,"hemolysis at 1 h, 200 µM",[6],8.31%
same,inhibition at 100 µM,Enterococcus faecalis [7],73.8%
same,Activity,Enterococcus faecalis [8],inactive
same,Activity,Enterococcus faecalis [9],Dose-Dependent Effect
same,Activity,Enterococcus faecalis [11],inactive
CC1(C)S[C@@H]2[C@H](NC(=O)[C@H](N)c3ccccc3)C(=O)N2[C@H]1C(=O)O [AMPICILLIN],Activity,Enterococcus faecalis [10],24.46%
CCOC(=O)c1c(CN2CCN(C)CC2)n(-c2ccccc2)c2ccc(OS(=O)(=O)c3ccc(C)cc3)cc12,MIC,Enterococcus faecalis [1],25 µM
same,MBC,Enterococcus faecalis [2],100 µM
same,IC50,[3],42.9 µM
same,CC50,[4],> 200 µM
same,"hemolysis at 1 h, 50 µM",[5],24.1%
same,"hemolysis at 1 h, 200 µM",[6],28.2%
same,MIC,Enterococcus faecalis [12],25 µM
same,MIC,Enterococcus faecalis [13],25 µM
same,MIC,Enterococcus faecalis [14],50 µM
same,MIC,[15],12.5 µM
same,MIC,[16],12.5 µM
same,MIC,Staphylococcus aureus [17],12.5 µM
same,MIC,Staphylococcus aureus [18],12.5 µM
same,MIC,Enterococcus faecium,25 µM
same,MIC,Streptococcus agalactiae,12.5 µM
same,MIC,Escherichia coli,> 200 µM
same,inhibition at 100 µM,Enterococcus faecalis [7],96.2%
same,Activity,Enterococcus faecalis [19],Active
same,Activity,Enterococcus faecalis [20],Active
same,Activity,Enterococcus faecalis [21],Active
same,Activity,Enterococcus faecalis [9],Dose-Dependent Effect
same,Activity,Enterococcus faecalis [22],Active
same,Activity,Enterococcus faecalis [11],inactive
same,Activity,Enterococcus faecalis [10],18.29%
same,MIC,Enterococcus faecalis [23],25 µM
same,MIC50,Enterococcus faecalis [24],50 µM
same,MIC90,Enterococcus faecalis [25],100 µM
same,Activity,Enterococcus faecalis [26],74.8%
same,fold change (FC),Enterococcus faecalis [27],20
same,fold change (FC),Enterococcus faecalis [28],3
same,fold change (FC),Enterococcus faecalis [29],2
same,fold change (FC),Enterococcus faecalis [30],2
same,fold change (FC),Enterococcus faecalis [31],2
same,fold change (FC),Enterococcus faecalis [32],2
same,fold change (FC),Enterococcus faecalis [33],2
same,OD,Enterococcus faecalis [34],0.186
same,fold change (FC),Enterococcus faecalis [35],4
same,Activity,Enterococcus faecalis [36],Active
same,Activity,Enterococcus faecalis [37],Active
same,Activity,Enterococcus faecalis [38],Active
same,Activity,Enterococcus faecalis [39],Active
O=C(O)COc1ccc(/C=C2/SC(=O)N(Cc3ccc(F)cc3)C2=O)cc1Br,MIC,Enterococcus faecalis [1],> 200 µM
same,MBC,Enterococcus faecalis [2],> 200 µM
same,IC50,[3],27.4 µM
same,CC50,[4],> 200 µM
same,"hemolysis at 1 h, 50 µM",[5],8.36%
same,"hemolysis at 1 h, 200 µM",[6],22.7%
same,MIC,Enterococcus faecalis [12],> 200 µM
same,MIC,Enterococcus faecalis [13],> 200 µM
same,MIC,Enterococcus faecalis [14],> 200 µM
same,MIC,[15],> 200 µM
same,MIC,[16],> 200 µM
same,MIC,Staphylococcus aureus [17],> 200 µM
same,MIC,Staphylococcus aureus [18],> 200 µM
same,MIC,Enterococcus faecium,> 200 µM
same,MIC,Streptococcus agalactiae,> 200 µM
same,MIC,Escherichia coli,> 200 µM
same,inhibition at 100 µM,Enterococcus faecalis [7],83.5%
same,Activity,Enterococcus faecalis [8],inactive
same,Activity,Enterococcus faecalis [9],Dose-Dependent Effect
same,Activity,Enterococcus faecalis [22],Active
same,Activity,Enterococcus faecalis [11],inactive

# From ChEMBL document CHEMBL5030556, “Selection and Identification of Novel Antibacterial Agents against Planktonic Growth and Biofilm Formation of Enterococcus faecalis” (J Med Chem, 2021)
